# Key:
# [1] = target: mushroom tyrosinase (EC 1.14.18.1); test: Mushroom tyrosinase inhibition assay, L-Dopa as substrate (diphenolase activity, dopachrome at 490 nm); type: biochemical; details: for % Inhibition at 30 µM: 30 µM compound; for % Inhibition at 30 µM / % Inhibition at 80 µM: mean of three independent experiments; for % Inhibition at 80 µM: 80 µM compound
# Experimental: We conducted the assay of mushroom tyrosinase (EC 1.14.18.1) utilizing L-Dopa as the substrate, as previously described, with minor adaptations. We employed a spectrophotometric technique to assess the enzyme's diphenolase activity, observing dopachrome formation at 490 nm. […] In a 96-well microplate, 10 µl of the test samples were combined with 140 µl of 50 mM phosphate buffer (pH = 6.8). Subsequently, 20 µl of tyrosinase (273 U mL^−1) was introduced. Following a pre-incubation period of 20 min at 28 °C, 20 µl of L-Dopa solution (resulting in a final concentration of 0.7 mM) was added to the mixture. Following a 10-min incubation, the absorbance of the samples was measured. The inhibitory activity of the tested compounds was stated as IC50. The ratio percentage of inhibition was calculated according to the equation below: Inhibition%=100Abscontrol-Abscompound/Abscontrol
# mushroom tyrosinase = test: Kinetic study of tyrosinase inhibition (Lineweaver-Burk plots); type: biochemical
# Excerpt: Mechanism and type of inhibition were elucidated through kinetic investigations. […] Lineweaver–Burk plots, depicting 1/V against 1/[S], were constructed to illustrate the inhibition of tyrosinase by 6b across varying concentrations of both 6b and L-Dopa, the substrate. In this context, Km represents the Michaelis–Menten constant, while Vmax signifies the maximum reaction velocity.
# Based on these findings, it can be inferred that the inhibitory effect of compound 6b is competitive.
# The inhibitor concentrations employed ranged from 2 to 20 μM, while the substrate (L-Dopa) concentrations in the rane of 0.1 mM to 1.5 mM through all kinetic experiments. The pre-incubation and measurement durations followed the protocol outlined in the mushroom tyrosinase inhibition assay. The maximum initial velocity was ascertained from the initial linear segment of absorbance within a 10-min window following the introduction of L-Dopa, with measurements taken at 1-min intervals. Utilizing the Lineweaver–Burk plot technique, we calculated the Michaelis constant (Km) and the tyrosinase activity's maximal velocity (Vmax). This plot involved various L-Dopa concentrations as the substrate. For assessing the enzyme's inhibition type, we employed Lineweaver–Burk plots featuring the reciprocal of velocities (1/V) plotted against the reciprocal of substrate concentrations (1/[S] mM^−1).
# tyrosinase = details: Fig. 1; cited from earlier work
Compound,% Inhibition at 80 µM [1] [%],melting point [°C],further results
"N#CC1=C(N)Oc2c(oc(CO)cc2=O)C1c1ccc(OCc2ccc(F)cc2)cc1 (centres unmarked) [6b, 2-Amino-4-(4-((4-fluorobenzyl)oxy)phenyl)-6-(hydroxymethyl)-8-oxo-4,8-dihydropyrano[3,2-b]pyran-3-carbonitrile]",89.27 ± 2.59,227 to 230,"IC50 [1]: 7.69 ± 1.99 µM; % Inhibition at 30 µM [1]: 79.81 ± 6.18%; type of inhibition (mushroom tyrosinase; Lineweaver-Burk plot, Vmax constant, Km rising): competitive; Ki (mushroom tyrosinase; secondary plot of Km vs concentration of inhibitor, L-Dopa 0.1-1.5 mM, read-out: inhibition constant Ki): 7.57 µM"
"COc1cc(C2C(C#N)=C(N)Oc3c2oc(CO)cc3=O)ccc1OCc1ccc(F)cc1 (centres unmarked) [6l, 2-Amino-4-(4-((4-fluorobenzyl)oxy)-3-methoxyphenyl)-6-(hydroxymethyl)-8-oxo-4,8-dihydropyrano[3,2-b]pyran-3-carbonitrile]",49.09 ± 4.91,–,–
CCOC(=O)C1=C(N)Oc2c(ccc3ccccc23)C1c1cccc(Cl)c1 (centres unmarked) [1e],–,–,IC50 (tyrosinase): 34.1 µM
"N#CC1=C(N)Oc2c(oc(CO)cc2=O)C1c1cccc(OCc2ccc(F)cc2)c1 (centres unmarked) [6g, 2-Amino-4-(3-((4-fluorobenzyl)oxy)phenyl)-6-(hydroxymethyl)-8-oxo-4,8-dihydropyrano[3,2-b]pyran-3-carbonitrile]",88.63 ± 6.36,239 to 242,IC50 [1]: 9.72 ± 2.47 µM; % Inhibition at 30 µM [1]: 77.95 ± 4.54%
"N#CC1=C(N)Oc2c(oc(CO)cc2=O)C1c1cccc(OCc2ccc(Cl)cc2)c1 (centres unmarked) [6h, 2-Amino-4-(3-((4-chlorobenzyl)oxy)phenyl)-6-(hydroxymethyl)-8-oxo-4,8-dihydropyrano[3,2-b]pyran-3-carbonitrile]",67.95 ± 4.54,232 to 236,IC50 [1]: 10.7 ± 4.96 µM; % Inhibition at 30 µM [1]: 65.90 ± 5.09%
"COc1cc(C2C(C#N)=C(N)Oc3c2oc(CO)cc3=O)ccc1OCc1ccc(Br)cc1 (centres unmarked) [6n, 2-Amino-4-(4-((4-boromobenzyl)oxy)-3-methoxyphenyl)-6-(hydroxymethyl)-8-oxo-4,8-dihydropyrano[3,2-b]pyran-3-carbonitrile]",21.36 ± 3.63,–,–
"N#CC1=C(N)Oc2c(oc(CO)cc2=O)C1c1cccc(OCc2ccc(Br)cc2)c1 (centres unmarked) [6i, 2-Amino-4-(3-((4-bromobenzyl)oxy)phenyl)-6-(hydroxymethyl)-8-oxo-4,8-dihydropyrano[3,2-b]pyran-3-carbonitrile]",67.72 ± 7.27,236 to 238,IC50 [1]: 15.3 ± 3.17 µM; % Inhibition at 30 µM [1]: 59.54 ± 5.44%
O=c1cc(/C=C/c2cc(=O)c(O)co2)occ1O [1c],–,–,IC50 (tyrosinase): 30.6 µM
"2-Amino-4-(3-((para-tolyl)oxy)phenyl)-6-(hydroxymethyl)-8-oxo-4,8-dihydropyrano[3,2-b]pyran-3-carbonitrile [6j]",20.45 ± 4.54,–,tyrosinase inhibitory activity (in words) [1]: without any activity
"N#CC1=C(N)Oc2c(oc(CO)cc2=O)C1c1ccc(OCc2ccc(Cl)cc2)cc1 (centres unmarked) [6c, 2-Amino-4-(4-((4-chlorobenzyl)oxy)phenyl)-6-(hydroxymethyl)-8-oxo-4,8-dihydropyrano[3,2-b]pyran-3-carbonitrile]",50.01 ± 4.34,236 to 239,IC50 [1]: 79.2 ± 3.3 µM; % Inhibition at 30 µM [1]: 44.09 ± 2.94%
O=c1cc(CSc2nnc(-c3ccccc3)n2NCc2ccc(O)c(O)c2)occ1O [1d],–,–,IC50 (tyrosinase): 1.35 µM
Nn1c(SCc2cc(=O)c(O)co2)nnc1-c1ccc(Cl)cc1 [1a],–,–,IC50 (tyrosinase): 4.5 µM
"COc1cc(C2C(C#N)=C(N)Oc3c2oc(CO)cc3=O)ccc1OCc1ccc(C)cc1 (centres unmarked) [6o, 2-Amino-6-(hydroxymethyl)-4-(3-methoxy-4-((4-methylbenzyl)oxy)phenyl)-8-oxo-4,8 dihydropyrano[3,2-b]pyran-3-carbonitrile]",44.31 ± 4.18,–,–
"N#CC1=C(N)Oc2c(oc(CO)cc2=O)C1c1ccc(OCc2ccccc2)cc1 (centres unmarked) [6a, 2-Amino-4-(4-(benzyloxy)phenyl)-6-(hydroxymethyl)-8-oxo-4,8-dihydropyrano[3,2-b]pyran-3-carbonitrile]",47.90 ± 3.90,221 to 224,tyrosinase inhibitory activity (in words) [1]: inactive
"COc1cc(C2C(C#N)=C(N)Oc3c2oc(CO)cc3=O)ccc1OCc1ccccc1 (centres unmarked) [6k, 2-Amino-4-(4-(benzyloxy)-3-methoxyphenyl)-6-(hydroxymethyl)-8-oxo-4,8 dihydropyrano[3,2-b]pyran-3-carbonitrile]",10.25 ± 3.48,–,–
"N#CC1=C(N)Oc2c(oc(CO)cc2=O)C1c1cccc(OCc2ccccc2)c1 (centres unmarked) [6f, 2-Amino-4-(3-(benzyloxy)phenyl)-6-(hydroxymethyl)-8-oxo-4,8-dihydropyrano[3,2-b]pyran-3-carbonitrile]",42.27 ± 2.72,235 to 238,tyrosinase inhibitory activity (in words) [1]: no inhibitory activity
"N#CC1=C(N)Oc2c(oc(CO)cc2=O)C1c1ccc(OCc2ccc(Br)cc2)cc1 (centres unmarked) [6d, 2-Amino-4-(4-((4-bromobenzyl)oxy)phenyl)-6-(hydroxymethyl)-8-oxo-4,8 dihydropyrano[3,2-b]pyran-3-carbonitrile]",66.36 ± 3.64,214 to 216,IC50 [1]: 34 ± 2.53 µM; % Inhibition at 30 µM [1]: 48.86 ± 3.53%
CC1(C)CC(=O)C2=C(C1)Oc1ncn3ncnc3c1C2c1ccccc1 (centres unmarked) [1f],–,–,Inhibition percentage (tyrosinase): 78%
"Cc1ccc(COc2ccc(C3C(C#N)=C(N)Oc4c3oc(CO)cc4=O)cc2)cc1 (centres unmarked) [6e, 2-Amino-6-(hydroxymethyl)-4-(4-((4-methylbenzyl)oxy)phenyl)-8-oxo-4,8-dihydropyrano[3,2-b]pyran-3-carbonitrile]",48.63 ± 6.37,215 to 218,–
O=c1cc(Cc2cn(Cc3cccc4ccccc34)nn2)occ1O [1b],–,–,IC50 (tyrosinase): 0.06 µM
"COc1cc(C2C(C#N)=C(N)Oc3c2oc(CO)cc3=O)ccc1OCc1ccc(Cl)cc1 (centres unmarked) [6m, 2-Amino-4-(4-((4-cholorobenzyl)oxy)-3-methoxyphenyl)-6-(hydroxymethyl)-8-oxo-4,8-dihydropyrano[3,2-b]pyran-3-carbonitrile]",49.31 ± 6.12,–,–

# — PMC10885651 (BMC Chemistry, 2024)
